From patent US12545748B2, “Water-soluble 1,3-diphenylguanidine (DPG)-based supramolecular inclusion complex and preparation method and use thereof” (YANGZHOU UNIVERSITY, priority 2021, dated 2026)
Values after ≈ are worked out from the molar mass of the structure shown. Where two headings read alike, the source gives them in different places.

Key:
[1] = Solubilization experiment by ultraviolet-visible spectra (244 nm); conditions: water, thermodynamic from solid
Excerpt: Taking Examples 2 and 4 as examples, the solubilization effect was verified by comparing and analyzing absorption peaks of ultraviolet-visible spectra of the DPG raw material, the DPG-β-CDP inclusion complex, and the DPG-HP-β-CD inclusion complex. The results were shown in FIG. 5, β-CDP and HP-β-CD had no ultraviolet absorption peaks.

[2] = Thermogravimetric analysis (thermal stability); type: physicochemical
Procedure: Taking Examples 2 and 4 as examples, the thermal stability of DPG raw materials, HP-β-CD, β-CDP and their respective inclusion complexes were analyzed by thermogravimetric analysis, and the results were shown in FIG. 4.

[3] = in water at 25° C.; cited from earlier work
[4] = type: physicochemical
Procedure: 1. Determination of Inclusion Ratio and Inclusion Constant of Inclusion Complex by Ultraviolet-Visible Spectroscopy
According to a Benesi-Hildebrand method (J. Am. Chem. Soc. 1949, 71, 8, 2703-2707), it was obtained that: at 25° C., the complexation stability constants of HP-β-CD and β-CDP with DPG were 26.87 L/mol and 27.88 L/mol, respectively.

| Molecule | solubility [1] | second decomposition (temperature) [2] | began to decompose (temperature) ([2]; first decomposition) | solubility [3] | complexation stability constant with DPG [4] |
| --- | --- | --- | --- | --- | --- |
| N=C(Nc1ccccc1)Nc1ccccc1 [DPG, 1,3-diphenylguanidine] | 315 µg/mL (≈ 1490 µM) | 256 °C | 166 °C | about 315 mg/L |  |
| hydroxypropyl-ß-cyclodextrin [HP-β-CD] |  |  |  |  | 26.87 L/mol |
| β-cyclodextrin polymer [β-CDP] |  |  |  |  | 27.88 L/mol |
